Test results published in PMC9692511, “Coumarin-Based Dual Inhibitors of Human Carbonic Anhydrases and Monoamine Oxidases Featuring Amino Acyl and (Pseudo)-Dipeptidyl Appendages: In Vitro and Computational Studies” (Molecules, 2022).
Values joined by “and” are separate entries in the source; they are usually repeats but may differ in a detail not shown here. Identical values can stand only once. Like-named read-outs stand apart in the source and are kept apart here.

Experiments:
[1] = target: T1, hMAO-A (Homo sapiens, UniProt P21397); assay: hMAO-A inhibition, kynuramine fluorescence assay; type: biochemical
T1 construct: purchased Sigma-Aldrich
T1 sequence (P21397 1-527): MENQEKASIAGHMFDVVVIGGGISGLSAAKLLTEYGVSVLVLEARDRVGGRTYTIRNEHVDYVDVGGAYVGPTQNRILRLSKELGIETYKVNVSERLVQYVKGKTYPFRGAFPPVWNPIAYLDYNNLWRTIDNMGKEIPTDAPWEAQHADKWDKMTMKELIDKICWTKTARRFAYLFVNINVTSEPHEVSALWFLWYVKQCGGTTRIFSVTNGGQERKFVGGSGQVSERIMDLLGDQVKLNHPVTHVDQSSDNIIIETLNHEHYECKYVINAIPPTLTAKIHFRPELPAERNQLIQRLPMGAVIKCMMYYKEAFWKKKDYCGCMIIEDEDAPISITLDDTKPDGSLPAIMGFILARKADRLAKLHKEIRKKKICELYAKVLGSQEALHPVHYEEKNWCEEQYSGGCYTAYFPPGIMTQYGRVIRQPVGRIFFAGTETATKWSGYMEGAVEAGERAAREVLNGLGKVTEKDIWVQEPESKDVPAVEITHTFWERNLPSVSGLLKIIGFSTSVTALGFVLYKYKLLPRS
Description: (§1) Activity measurements (IC50) for hMAO-A and hMAO-B were carried out as reported in the literature. Recombinant human MAO-A and MAO-B were obtained commercially (Sigma-Aldrich, Cape Town, South Africa) and were used as enzyme sources. Kynuramine is a non-specific substrate and serves as a substrate for both hMAO isoforms. The hMAOs metabolize kynuramine to produce 4-hydroxyquinoline, which was measured at the endpoint of the enzyme reactions by fluorescence spectrophotometry.

[2] = target: T2, hCA I (Homo sapiens, UniProt P00915); assay: hCA I inhibition, stopped-flow CO2 hydration assay; type: biochemical; settings: stopped-flow technique, mean of three independent experiments
T2 construct: made in house
Description: (§2) An Applied Photophysics stopped-flow instrument was used for measuring hCA-catalyzed CO2 hydration activity. […] However, the background activity from the uncatalyzed reaction was always subtracted when IC50 values were obtained by using the data analysis software for the stopped-flow instrument. […] The uncatalyzed rates were measured in the same manner and were subtracted from the total observed rates. Stock solutions of the inhibitor (0.1 mM) were prepared in distilled-deionized water, and dilutions up to 0.01 nM were performed thereafter with the assay buffer. Inhibitor and enzyme solutions were preincubated together for 15 min at room temperature prior to the assay, to allow for the formation of the E–I complex. The inhibition constants (Ki) were obtained by the nonlinear least-squares methods using PRISM 3 and the Cheng-Prusoff equation as reported earlier and are presented as the mean from at least three different determinations. All hCA isoforms were recombinant proteins obtained in-house, as reported earlier.

[3] = target: T3, hMAO-B (Homo sapiens, UniProt P27338); assay: hMAO-B inhibition, kynuramine fluorescence assay; type: biochemical; settings: recombinant human MAO-B, kynuramine substrate; mean ± SD of three independent experiments
T3 construct: purchased Sigma-Aldrich
T3 sequence (P27338 1-520): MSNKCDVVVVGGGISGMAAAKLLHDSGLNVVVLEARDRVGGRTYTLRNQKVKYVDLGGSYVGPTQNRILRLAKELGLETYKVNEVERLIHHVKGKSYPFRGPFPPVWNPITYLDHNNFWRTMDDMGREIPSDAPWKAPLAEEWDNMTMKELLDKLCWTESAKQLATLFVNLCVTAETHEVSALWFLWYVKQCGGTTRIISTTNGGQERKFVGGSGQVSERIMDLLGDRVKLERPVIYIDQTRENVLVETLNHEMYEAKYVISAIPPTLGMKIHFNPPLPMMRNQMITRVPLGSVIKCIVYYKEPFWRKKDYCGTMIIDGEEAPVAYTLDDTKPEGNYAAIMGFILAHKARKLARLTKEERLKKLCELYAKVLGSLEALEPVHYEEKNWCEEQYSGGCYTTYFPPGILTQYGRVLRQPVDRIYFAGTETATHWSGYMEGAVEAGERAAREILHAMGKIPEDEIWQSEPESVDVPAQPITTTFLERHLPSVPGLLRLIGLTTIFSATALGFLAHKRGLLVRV
Description: as §1

[4] = target: T4, hCA II (Homo sapiens, UniProt P00918); assay: hCA II inhibition, stopped-flow CO2 hydration assay; type: biochemical; settings: stopped-flow technique, mean of three independent experiments
T4 construct: made in house
Description: as §2

[5] = target: T5, hCA IX (Homo sapiens, UniProt Q16790); assay: hCA IX inhibition, stopped-flow CO2 hydration assay; type: biochemical; settings: for Ki: stopped-flow technique, mean of three independent experiments
T5 construct: made in house
Description: as §2

[6] = target: T6, hCA XII (Homo sapiens, UniProt O43570); assay: hCA XII inhibition, stopped-flow CO2 hydration assay; type: biochemical; settings: for SI hCA XII over hCA I or hCA II: Ki hCA I or II (nM)/Ki hCA XII (nM); for SI hCA XII over hCA IX: Ki hCA IX (nM)/Ki hCA XII (nM)
T6 construct: made in house
Description: as §2

[7] = recombinant human MAO-A, kynuramine substrate, mean ± SD of three independent experiments
[8] = Ki hCA I or II (nM)/Ki hCA IX (nM)
[9] = stopped-flow technique, mean of three independent experiments, read-out: Ki hCA XII

T2 sequence (P00915 whole entry): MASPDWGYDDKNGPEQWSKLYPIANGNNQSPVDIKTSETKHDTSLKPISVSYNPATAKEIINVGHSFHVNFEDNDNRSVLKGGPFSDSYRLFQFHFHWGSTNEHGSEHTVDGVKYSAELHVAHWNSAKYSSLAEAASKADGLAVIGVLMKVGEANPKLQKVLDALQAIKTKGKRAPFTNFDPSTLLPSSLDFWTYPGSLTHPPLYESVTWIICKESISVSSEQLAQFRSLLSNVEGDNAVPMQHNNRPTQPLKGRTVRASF
T6 sequence (O43570 25-354): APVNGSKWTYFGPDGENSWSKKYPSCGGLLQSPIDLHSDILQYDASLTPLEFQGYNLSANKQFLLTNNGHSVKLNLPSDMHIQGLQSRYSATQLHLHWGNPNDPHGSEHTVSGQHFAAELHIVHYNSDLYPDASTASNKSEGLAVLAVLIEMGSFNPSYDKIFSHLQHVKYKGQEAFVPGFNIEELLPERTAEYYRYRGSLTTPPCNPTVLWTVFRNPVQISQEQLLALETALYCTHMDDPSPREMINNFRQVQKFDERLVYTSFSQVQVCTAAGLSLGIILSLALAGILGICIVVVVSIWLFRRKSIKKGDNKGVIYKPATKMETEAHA

IC50 [1, 7] | Ki [2] | IC50 [3] | Ki [4] | SI hCA IX over hCA I or hCA II [5] | Ki [5] | SI hCA XII over hCA I or hCA II [6] | SI hCA XII over hCA IX [6] | melting point | SI hCA IX over hCA I or hCA II [5, 8] | Ki [6] | SI MAO-B/MAO-A ([1]; IC50 MAO-B/IC50 MAO-A, selectivity for hMAO-A) | Ki [6, 9] | MAO-A (IC50 μM) [1, 7] | MAO-B (IC50 μM) [3] | SMILES
54.8 ± 0.028 µM | > 10 µM | > 100 µM | > 10 µM | – | 0.091 µM | >268.8 | 2.4 | 153 to 155 °C | >109.9 | 0.0372 µM | – | – | – | – | Cc1cc(=O)oc2cc(NC(=O)[C@H](C)NC(=O)OCC3c4ccccc4-c4ccccc43)ccc12 [Compound 2, Fmoc-Ala-AMC]
< 10 µM and 5.91 µM | > 10 µM | > 100 µM | > 10 µM | – | 0.183 µM | >261.8 | 4.8 | 193 to 195 °C | >54.6 | 0.0382 µM | – | – | – | – | COC(=O)CNC(=O)N[C@@H](C)C(=O)Nc1ccc2c(C)cc(=O)oc2c1 [Compound 16, MeO-Gly-CO-Ala-AMC]
69.6 ± 9.28 µM | > 10 µM | 58.6 ± 24 µM | > 10 µM | – | 0.163 µM | >1041.7 | 17.0 | 193 to 195 °C | >61.2 | 0.0096 µM | – | – | – | – | COC(=O)[C@H](C)NC(=O)N[C@@H](C)C(=O)Nc1ccc2c(C)cc(=O)oc2c1 [Compound 17, MeO-Ala-CO-Ala-AMC]
> 100 µM | > 10 µM | > 100 µM | > 10 µM | – | 0.261 µM | >1052.6 | 27.4 | 182 to 183 °C | >38.4 | 0.0095 µM | – | – | completely devoid of activity | completely devoid of activity | CCOC(=O)CCNC(=O)N[C@@H](C)C(=O)Nc1ccc2c(C)cc(=O)oc2c1 [Compound 19, EtO-βAla-CO-Ala-AMC]

The remaining lines, values behind:

SMILES | IC50 [1, 7] | Ki [2] | IC50 [3] | Ki [4] | SI hCA IX over hCA I or hCA II [5] | Ki [5] | SI hCA XII over hCA I or hCA II [6] | SI hCA XII over hCA IX [6] | melting point | SI hCA IX over hCA I or hCA II [5, 8] | Ki [6] | SI MAO-B/MAO-A ([1]; IC50 MAO-B/IC50 MAO-A, selectivity for hMAO-A) | Ki [6, 9] | MAO-A (IC50 μM) [1, 7] | MAO-B (IC50 μM) [3]
Cc1cc(=O)oc2cc(NC(=O)[C@H](C)NC(=O)OCc3ccccc3)ccc12 [Compound 1, Z-Ala-AMC] | < 10 µM and 9.31 µM | > 10 µM | > 100 µM | > 10 µM | >327.9 | 0.0305 µM | >90.9 | 0.3 | – | – | – | – | – | – | –
CC(=O)N[C@@H](C)C(=O)Nc1ccc2c(C)cc(=O)oc2c1 [Compound 6, Ac-Ala-AMC] | < 10 µM and 1.92 µM | > 10 µM | > 100 µM | > 10 µM | – | 0.0234 µM | >327.9 | 0.8 | – | >427.3 | – | 52 | 0.0305 µM | – | –
COCc1cc(=O)oc2cc(NC(=O)[C@H](C)NC(C)=O)ccc12 [Compound 7, Ac-Ala-AMMC] | 12 ± 0.693 µM | > 10 µM | 45.6 ± 1.85 µM | > 10 µM | – | 0.0294 µM | >213.7 | 0.6 | – | >340.1 | – | – | 0.0468 µM | – | –
CCC(C)C(NC(=O)OCc1ccccc1)C(=O)Nc1ccc2c(COC)cc(=O)oc2c1 (stereo not drawn) [Compound 8, Z-Ile-AMMC] | 47 ± 13.5 µM | > 10 µM | > 100 µM | > 10 µM | – | 0.0787 µM | >241.0 | 1.9 | – | >127.1 | 0.0415 µM | – | – | – | –
COCc1cc(=O)oc2cc(NC(=O)[C@@H](NC(=O)[C@H](C)NC(=O)OCc3ccccc3)C(C)(C)C)ccc12 [Compound 11, Z-Ala-tLeu-AMMC] | 41.3 ± 17.8 µM | > 10 µM | 79.5 ± 7.24 µM | > 10 µM | – | 0.172 µM | >29.7 | 0.5 | 205 to 209 °C | >58.3 | 0.336 µM | – | – | – | –
COC(=O)[C@H](Cc1ccccc1)NC(=O)N[C@@H](C)C(=O)Nc1ccc2c(C)cc(=O)oc2c1 [Compound 18, MeO-Phe-CO-Ala-AMC] | 21.8 ± 0.092 µM | > 10 µM | 78 ± 22.3 µM | > 10 µM | – | 0.0936 µM | >250.0 | 2.3 | 177 to 183 °C | >106.8 | 0.04 µM | – | – | – | –
COCc1cc(=O)oc2cc(NC(=O)[C@H](C)NC(=O)N[C@@H](C)C(=O)OC)ccc12 [Compound 20, MeO-Ala-CO-Ala-AMMC] | > 100 µM | > 10 µM | 75.3 ± 0.976 µM | > 10 µM | – | 0.027 µM | >182.8 | 0.5 | 148 to 150 °C | >370.4 | 0.0547 µM | – | – | – | –
